Experimental data reported in PubChem BioAssay (NCI).
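These data come from cells grown in 96-well plates and exposed to compound for 48 hours at five concentrations. Abbreviation: GI50, concentration required for 50% inhibition of growth. TGI: total growth inhibition.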

Experiments:
Assay in all cases: growth of human tumour cells (NCI), 48 h
[1] = test system: MDA-MB-468 breast
[2] = test system: A549 NSCLC
[3] = test system: IGROV1 ovarian
[4] = test system: MALME-3M melanoma
[5] = test system: SK-OV-3 ovarian
[6] = test system: HL-60(TB) leukemia
[7] = test system: ACHN renal
[8] = test system: UO-31 renal
[9] = test system: SF-268 CNS
[10] = test system: CCRF-CEM leukemia
[11] = test system: RPMI-8226 leukemia
[12] = test system: SW-620 colon
[13] = test system: TK-10 renal
[14] = test system: 786-0 renal
[15] = test system: SF-539 CNS
[16] = test system: COLO 205 colon
[17] = test system: DU-145 prostate
[18] = test system: HCC-2998 colon
[19] = test system: BT-549 breast
[20] = test system: NCI-H460 lung
[21] = test system: SNB-19 CNS
[22] = test system: SK-MEL-2 melanoma
[23] = test system: CAKI-1 renal
[24] = test system: SF-295 CNS
[25] = test system: HT29 colon
[26] = test system: SK-MEL-5 melanoma
[27] = test system: SN12C renal
[28] = test system: HS 578T breast
[29] = test system: MDA-MB-435
[30] = test system: EKVX NSCLC

## C#C[C@]1(O)CC[C@H]2[C@@H]3CC=C4c5sc(Nc6ccc(C(F)(F)F)cn6)nc5CC[C@]4(C)[C@H]3CC[C@@]21C
[1]
  GI50: 3.16 µM
  TGI: 18.9 µM
[2]
  GI50: 6.95 µM
  TGI: > 100 µM
[3]
  GI50: 4.16 µM
  TGI: 21 µM
[4]
  GI50: 2.89 µM
  TGI: 14.1 µM
[5]
  GI50: 2.83 µM
  TGI: 26.7 µM
[6]
  GI50: 2.67 µM
  TGI: 7.65 µM
[7]
  GI50: 3.34 µM
  TGI: 24.2 µM
[8]
  GI50: 3.09 µM
  TGI: 13.7 µM
[9]
  GI50: 4.04 µM
  TGI: 32.6 µM
[10]
  GI50: 2.76 µM
  TGI: > 100 µM
[11]
  GI50: 0.564 µM
  TGI: > 100 µM
[12]
  GI50: 2.04 µM
  TGI: 5.03 µM
[13]
  GI50: 6.83 µM
  TGI: 91.2 µM
[14]
  GI50: 1.47 µM
  TGI: 3.45 µM
[15]
  GI50: 0.89 µM
  TGI: 2.66 µM
[16]
  GI50: 2.75 µM
  TGI: 13.8 µM
[17]
  GI50: 4.6 µM
  TGI: 22.5 µM
[18]
  GI50: 4.82 µM
  TGI: 18.3 µM
[19]
  GI50: 2.54 µM
  TGI: 8.13 µM
[20]
  GI50: 2.86 µM
  TGI: 10.6 µM
[21]
  GI50: 2.9 µM
  TGI: 12.2 µM
[22]
  GI50: 2.91 µM
  TGI: 10.6 µM
[23]
  GI50: 1.92 µM
  TGI: 5.62 µM
[24]
  GI50: 0.565 µM
  TGI: 2.07 µM
[25]
  GI50: 3.85 µM
  TGI: 30.5 µM
[26]
  GI50: 2.09 µM
  TGI: 4.8 µM
[27]
  GI50: 4.77 µM
  TGI: 19.2 µM
[28]
  GI50: 1.45 µM
  TGI: 5.27 µM
[29]
  GI50: 3.04 µM
  TGI: 11.9 µM
[30]
  GI50: 2.15 µM
